The source of these data is PMC7238241, “Lack of Correlation between In Vitro and In Vivo Studies on the Inhibitory Effects of (‒)-Sophoranone on CYP2C9 Is Attributable to Low Oral Absorption and Extensive Plasma Protein Binding of (‒)-Sophoranone” (Pharmaceutics, 2020).

Molecules are shown by their SMILES.

The target of one series is T1, CYP1A2 (Homo sapiens, UniProt P05177).
T1 construct: tissue Corning Life Sciences; host or cells: pooled human liver microsomes, 150 donors
T1 sequence (P05177 1-516): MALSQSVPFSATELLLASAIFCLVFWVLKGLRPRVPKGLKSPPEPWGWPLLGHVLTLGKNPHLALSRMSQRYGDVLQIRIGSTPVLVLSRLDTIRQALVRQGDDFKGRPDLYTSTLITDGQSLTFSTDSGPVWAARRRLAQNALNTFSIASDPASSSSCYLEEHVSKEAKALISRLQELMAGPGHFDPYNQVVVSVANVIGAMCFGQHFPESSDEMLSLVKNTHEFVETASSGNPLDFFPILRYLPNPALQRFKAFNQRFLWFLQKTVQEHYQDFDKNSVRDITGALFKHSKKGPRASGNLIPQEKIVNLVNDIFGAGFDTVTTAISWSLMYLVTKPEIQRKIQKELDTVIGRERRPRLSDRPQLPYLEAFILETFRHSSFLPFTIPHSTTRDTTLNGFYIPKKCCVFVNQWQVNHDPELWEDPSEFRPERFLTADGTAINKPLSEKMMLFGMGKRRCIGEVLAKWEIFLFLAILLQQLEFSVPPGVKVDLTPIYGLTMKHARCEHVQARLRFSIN
Nature of the series: Reversible CYP1A2 inhibition, cocktail assay (phenacetin O-deethylase) in human liver microsomes. The class given is biochemical. The method, then:
(§1) The inhibitory effects of SPN on CYP1A2, CYP2A6, CYP2B6, CYP2C8, CYP2C9, CYP2C19, CYP2D6, CYP2E1, and CYP3A4 were evaluated in pooled human liver microsomes through the use of specific CYP probe substrates (cocktail assay), as previously described with a slight modification. Concentrations of each CYP probe in Table 1 were used close to their reported Km values.
(§2) Briefly, a 90-µL incubation mixture, including pooled human liver microsomes (final concentration 0.1 mg/mL), 50 mM phosphate buffer (pH 7.4), each CYP-probe substrate cocktail set, and SPN (0–50 μM), was pre-incubated for 5 min at 37 °C. SPN was dissolved in methanol and spiked into the incubation mixture to a final concentration of 0.5% methanol. […]
(§3) The IC50 values were calculated via nonlinear least-squares regression analysis from logarithmic plots of inhibitor concentration versus percentage of activity remaining after inhibition, using SigmaPlot (ver. 14.0; Systat Software Inc, Chicago, IL, USA). The Ki values were determined from the equations for a single substrate single inhibitor model and the software available in the SigmaPlot Enzyme Kinetics module. Competitive, non-competitive, uncompetitive, or mixed inhibition models were evaluated and ranked according to the best fit based on Akaike Information Criterion (AIC) values. […]
In general terms: Microsomes from liver hold many membrane-bound enzymes, among them those of drug oxidation.

Another series has as its target T2, CYP2C8 (Homo sapiens, UniProt P10632).
T2 construct: tissue Corning Life Sciences; host or cells: pooled human liver microsomes, 150 donors
T2 sequence (P10632 1-490): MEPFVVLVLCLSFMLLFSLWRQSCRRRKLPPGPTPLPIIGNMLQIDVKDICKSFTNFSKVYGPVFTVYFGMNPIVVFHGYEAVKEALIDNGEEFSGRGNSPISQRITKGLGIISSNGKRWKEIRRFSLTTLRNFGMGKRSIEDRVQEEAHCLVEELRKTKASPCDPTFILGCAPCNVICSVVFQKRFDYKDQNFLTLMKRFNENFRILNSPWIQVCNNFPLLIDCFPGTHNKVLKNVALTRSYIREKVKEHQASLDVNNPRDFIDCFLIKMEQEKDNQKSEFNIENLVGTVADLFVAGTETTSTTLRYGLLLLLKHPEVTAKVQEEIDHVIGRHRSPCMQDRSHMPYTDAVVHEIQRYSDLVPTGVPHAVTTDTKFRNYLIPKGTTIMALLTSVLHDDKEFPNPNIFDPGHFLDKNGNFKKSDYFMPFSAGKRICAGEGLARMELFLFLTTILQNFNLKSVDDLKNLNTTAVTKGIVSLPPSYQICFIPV
Nature of the series: Reversible CYP2C8 inhibition, cocktail assay (rosiglitazone p-hydroxylase) in human liver microsomes. It is filed as biochemical. Particulars: human liver microsomes 0.1 mg/mL, rosiglitazone probe, n = 3. The method, then: as §1, §2, §3

In a further series the target is T3, CYP3A4 (Homo sapiens, UniProt P08684).
T3 construct: tissue Corning Life Sciences; host or cells: pooled human liver microsomes, 150 donors
Nature of the series: Reversible CYP3A4 inhibition, cocktail assay (midazolam 1′-hydroxylase) in human liver microsomes. As to conditions: midazolam probe. It is filed as biochemical. As for the experimental part:
as §1, §2, §3

A short description of series [1]: Bi-directional Caco-2 cell permeability. It is filed as in vitro ADME. Particulars: human, Caco-2. As for the experimental part:
(§4) Caco-2 cell permeability was assessed to predict the oral absorption of SPN. Cell culture and transport studies were performed as previously described. Briefly, for the bi-directional transport studies, the cells were seeded at a density of 1 × 10^5 cells/well, and the cell medium was replaced until they formed confluent monolayers. On the 25th day, the cell monolayers were washed with pre-warmed HBSS buffer. […] Before the experiment, the integrity of the cell monolayers was evaluated by measuring the transepithelial electrical resistance using a Millicell ohmmeter. After 2 h incubation at 37 °C, samples were withdrawn from both sides, respectively. All samples were stored at −80 °C until LC-MS/MS analysis, and all experiments were performed in triplicate.
(§5) The apparent permeability coefficient (Papp) was calculated using the following equation. Papp = (Vr/C0) × (1/A) × ([Drug]/t) where, Vr is the volume of medium in the receiver chamber, C0 is the donor compartment concentration at time zero, A is the area of the cell monolayer, t is the treatment time of the drug, and [Drug] is the drug concentration in the receiver chamber.
Background: Caco-2 monolayers are a common model of the intestinal barrier.

For the next series, the system named is Caco-2 cells. Put plainly: Bi-directional Caco-2 cell permeability. The class given is in vitro ADME. The method, then: as §4, §5
Setting [2] is: at the highest tested concentration (50 μM).

T3 sequence (P08684 whole entry): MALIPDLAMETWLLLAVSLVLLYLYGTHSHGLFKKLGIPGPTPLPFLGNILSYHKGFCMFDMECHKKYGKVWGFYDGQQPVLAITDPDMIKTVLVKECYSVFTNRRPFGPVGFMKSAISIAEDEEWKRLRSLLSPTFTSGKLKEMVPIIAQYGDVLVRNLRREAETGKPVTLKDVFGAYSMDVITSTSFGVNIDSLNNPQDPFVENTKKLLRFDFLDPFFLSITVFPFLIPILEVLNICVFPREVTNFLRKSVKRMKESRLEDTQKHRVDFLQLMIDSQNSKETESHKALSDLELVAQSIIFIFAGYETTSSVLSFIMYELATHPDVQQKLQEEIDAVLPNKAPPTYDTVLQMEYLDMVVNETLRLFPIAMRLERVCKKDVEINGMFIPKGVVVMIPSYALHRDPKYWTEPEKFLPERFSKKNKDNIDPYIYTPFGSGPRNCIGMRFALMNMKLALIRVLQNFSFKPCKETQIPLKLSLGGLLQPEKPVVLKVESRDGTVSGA

In general, IC50 refers to the concentration that inhibits the measured activity by half. In general, Papp A→B refers to the apparent permeability from the apical to the basolateral side of a cell layer. One may read the Papp B→A as how fast a substance crosses the layer from the basolateral side. With `CC(C)=CCc1cc([C@@H]2CC(=O)c3ccc(O)c(CC=C(C)C)c3O2)cc(CC=C(C)C)c1O` [SPN, (‒)-Sophoranone], the “residual enzyme activity, CYP1A2” value at CYP1A2 (setting [2]) is on record as “greater than 80%”. Further, the IC50 is more than 50 µM against CYP1A2 (human liver microsomes 0.1 mg/mL, cocktail assay, phenacetin probe, n = 3); 13.6 ± 3.15 µM on CYP2C8; more than 50 µM at CYP3A4 (human liver microsomes 0.1 mg/mL, cocktail assay, n = 3). The “residual enzyme activity, CYP3A4” value at CYP3A4 (setting [2]) is recorded as 53.3 ± 4.00%. In addition, the Papp A→B at 2 h, 10 µM in series [1] (10 μM, 2 h, n = 3) was 0.115 ± 0.0369 ×10⁻⁶ cm/s. Further, the Papp B→A at 2 h, 10 µM in series [1] (10 μM, 2 h, n = 3) was 0.101 ± 0.00444 ×10⁻⁶ cm/s. In addition, in series [1] (50 μM, 2 h, n = 3), the apical-to-basolateral permeability (Papp A→B) at 2 h, 50 µM was 0.172 ± 0.0488 ×10⁻⁶ cm/s. In series [1] (50 μM, 2 h, n = 3), the Papp B→A at 2 h, 50 µM was found to be 0.152 ± 0.0353 ×10⁻⁶ cm/s. In series [1] (not a substrate for P-gp and BCRP, read-out: efflux ratio (B-to-A/A-to-B)), the efflux ratio at 2 h is less than 2. For the same molecule, the “Papp A-to-B as % of propranolol Papp” value with Caco-2 cells (10 μM) turned out to be 0.429%; in the series with Caco-2 cells (50 μM) it was 0.642%.
